Reference: patent publication US9981944B2, “GDF-8 inhibitors” (Rigel Pharmaceuticals, Inc., priority 2015, dated 2018)

Experiments:
HIS-TGFβR1 T204D = HIS-TGFβR1 T204D (Homo sapiens (Human), UniProt P36897, T204D); assay: HTRF probe displacement assay, HIS-TGFβR1 T204D; type: binding; settings: 1 nM HIS-TGFβR1 T204D, 1 hour at room temperature, read-out: TGFBR1T204D IC50
Description: (§1) Compounds were dissolved at 10 mM in dimethylsulfoxide (DMSO) and evaluated at eleven concentrations. IC50 values were derived by non-linear regression analysis.

HIS-TGFβR2 WT = HIS-TGFβR2 WT (Homo sapiens (Human), UniProt P37173); assay: HTRF probe displacement assay, HIS-TGFβR2 WT; type: binding; settings: 1 nM HIS-TGFβR2 WT, 1 hour at room temperature, read-out: TGFBR2WT IC50
Description: as §1

Chain of HIS-TGFβR1 T204D (P36897 34-503 T204D): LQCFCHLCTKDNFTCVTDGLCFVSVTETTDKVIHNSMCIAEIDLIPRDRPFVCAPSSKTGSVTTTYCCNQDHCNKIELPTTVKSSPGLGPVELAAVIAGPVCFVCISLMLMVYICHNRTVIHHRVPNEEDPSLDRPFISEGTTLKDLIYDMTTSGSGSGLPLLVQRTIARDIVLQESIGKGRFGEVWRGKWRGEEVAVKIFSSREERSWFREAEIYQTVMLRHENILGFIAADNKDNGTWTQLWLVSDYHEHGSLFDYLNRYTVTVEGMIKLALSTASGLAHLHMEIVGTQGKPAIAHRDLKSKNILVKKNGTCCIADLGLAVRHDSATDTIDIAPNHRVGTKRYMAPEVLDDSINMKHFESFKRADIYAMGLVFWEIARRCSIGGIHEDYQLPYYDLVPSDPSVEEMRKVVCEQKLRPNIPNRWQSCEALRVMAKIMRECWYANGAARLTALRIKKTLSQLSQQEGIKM
Chain of HIS-TGFβR2 WT (P37173 23-567): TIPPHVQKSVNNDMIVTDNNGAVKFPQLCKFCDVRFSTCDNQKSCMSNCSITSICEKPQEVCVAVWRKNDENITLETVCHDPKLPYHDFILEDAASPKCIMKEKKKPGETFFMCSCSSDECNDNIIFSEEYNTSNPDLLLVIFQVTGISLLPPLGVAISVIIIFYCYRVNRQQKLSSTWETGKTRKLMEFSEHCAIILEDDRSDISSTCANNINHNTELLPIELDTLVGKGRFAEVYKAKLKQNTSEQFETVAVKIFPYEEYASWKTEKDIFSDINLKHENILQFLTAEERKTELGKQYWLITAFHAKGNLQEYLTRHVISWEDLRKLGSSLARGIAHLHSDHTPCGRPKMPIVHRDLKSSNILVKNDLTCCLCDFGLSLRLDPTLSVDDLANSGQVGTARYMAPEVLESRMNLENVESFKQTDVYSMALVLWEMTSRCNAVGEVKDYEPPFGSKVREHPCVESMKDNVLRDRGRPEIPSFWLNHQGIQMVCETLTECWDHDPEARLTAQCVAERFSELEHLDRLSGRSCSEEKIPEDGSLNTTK

| IC50 (HIS-TGFβR1 T204D) [nM] | IC50 (HIS-TGFβR2 WT) [nM] | SMILES |
| --- | --- | --- |
| 137 | > 15000 | O=C(O)c1cnn2ccc(-c3cccnc3-c3cccc(C(F)(F)F)n3)nc12 [Compound 124, 5-(6′-(trifluoromethyl)-[2,2′-bipyridin]-3-yl)pyrazolo[1,5-a]pyrimidine-3-carboxylic acid] |
| 15000 | > 15000 | Cc1nc(-c2ncccc2-c2ccc3nc(C(N)=O)cn3c2)ccc1F [Compound 78, 6-(5′-fluoro-6′-methyl-[2,2′-bipyridin]-3-yl)imidazo[1,2-a]pyridine-2-carboxamide] |
| 84 | > 15000 | Cc1cccc(-c2nc(C(F)(F)F)ccc2-c2ccc3ncc(C(N)=O)n3c2)n1 [Compound 90, 6-(6′-methyl-6-(trifluoromethyl)-[2,2′-bipyridin]-3-yl)imidazo[1,2-a]pyridine-3-carboxamide] |
| 16 | > 15000 | FC(F)(F)c1cccc(-c2ncccc2-c2ccc3nccnc3c2)n1 [Compound 114, 6-(6′-(trifluoromethyl)-[2,2′-bipyridin]-3-yl)quinoxaline] |
| 15000 | > 15000 | NC(=O)c1cn2cc(-c3cccnc3-c3cccc(C(F)(F)F)n3)ccc2n1 [Compound 79, 6-(6′-(trifluoromethyl)-[2,2′-bipyridin]-3-yl)imidazo[1,2-a]pyridine-2-carboxamide] |
| 3360 | > 15000 | Cc1cccc(-c2nc(C(F)(F)F)ccc2-c2ccc3ncc(C#N)n3c2)n1 [Compound 89, 6-(6′-methyl-6-(trifluoromethyl)-[2,2′-bipyridin]-3-yl)imidazo[1,2-a]pyridine-3-carbonitrile] |
| 19 | > 15000 | Cc1cccc(-c2ncccc2-c2ccc3ncc(C(N)=O)n3n2)n1 [Compound 58, 6-(6′-methyl-[2,2′-bipyridin]-3-yl)imidazo[1,2-b]pyridazine-3-carboxamide] |
| 15 | > 15000 | FC(F)(F)c1cccc(-c2ncccc2-c2ccn3nccc3n2)n1 [Compound 136, 5-(6′-(trifluoromethyl)-[2,2′-bipyridin]-3-yl)pyrazolo[1,5-a]pyrimidine] |
| 3 | > 15000 | Cc1cccc(-c2ncccc2-c2ccc3nccn3c2)n1 [Compound 47, 6-(6′-methyl-[2,2′-bipyridin]-3-yl)imidazo[1,2-a]pyridine] |
| 4 | > 15000 | CC(=O)Nc1cn2cc(-c3cccnc3-c3ccc(F)c(C)n3)ccc2n1 [Compound 77, N-(6-(5′-fluoro-6′-methyl-[2,2′-bipyridin]-3-yl)imidazo[1,2-a]pyridin-2-yl)acetamide] |
| 907 | > 15000 | CC(=O)Nc1cccc(-c2ncccc2-c2ccc3ncc(C#N)n3c2)n1 [Compound 45, N-(3′-(3-cyanoimidazo[1,2-a]pyridin-6-yl)-[2,2′-bipyridin]-6-yl)acetamide] |
| 1020 | > 15000 | Cc1cccc(-c2ncccc2-c2ccc3nc(C(N)=O)cn3c2)n1 [Compound 80, 6-(6′-methyl-[2,2′-bipyridin]-3-yl)imidazo[1,2-a]pyridine-2-carboxamide] |

The remaining lines, values behind:

| SMILES | IC50 (HIS-TGFβR1 T204D) [nM] | IC50 (HIS-TGFβR2 WT) [nM] |
| --- | --- | --- |
| N#Cc1cnc2ccc(-c3cccnc3-c3ccccn3)cn12 [Compound 13, 6-([2,2′-bipyridin]-3-yl)imidazo[1,2-a]pyridine-3-carbonitrile] | 103 | > 15000 |
| NC(=O)c1cnc2ccc(-c3cc(F)cnc3-c3cccc(C(F)F)n3)cn12 [Compound 84, 6-(6′-(difluoromethyl)-5-fluoro-[2,2′-bipyridin]-3-yl)imidazo[1,2-a]pyridine-3-carboxamide] | 1 | > 15000 |
| Cc1nc(-c2ncccc2-c2ccn3ncc(C(=O)NC4COC4)c3n2)ccc1F [Compound 133, 5-(5′-fluoro-6′-methyl-[2,2′-bipyridin]-3-yl)-N-(oxetan-3-yl)pyrazolo[1,5-a]pyrimidine-3-carboxamide] | 24 | > 15000 |
| COc1cccc(-c2ncccc2-c2ccc3ncc(C(N)=O)n3n2)n1 [Compound 51, 6-(6′-methoxy-[2,2′-bipyridin]-3-yl)imidazo[1,2-b]pyridazine-3-carboxamide] | 21 | > 15000 |
| Nc1ncnc2ccc(-c3cccnc3-c3cccc(C4CC4)n3)cc12 [Compound 111] | 2 | > 15000 |
| Cc1cc(C)nc(-c2ncccc2-c2ccc3ncc(C(N)=O)n3c2)c1 [Compound 42, 6-(4′,6′-dimethyl-[2,2′-bipyridin]-3-yl)imidazo[1,2-a]pyridine-3-carboxamide] | 21 | > 15000 |
| Cc1cccc(-c2ncccc2-c2ccn3ncc(C(=O)NC4CC4)c3n2)n1 [Compound 128, N-cyclopropyl-5-(6′-methyl-[2,2′-bipyridin]-3-yl)pyrazolo[1,5-a]pyrimidine-3-carboxamide] | 33 | > 15000 |
| Cc1ccc(-c2ncccc2-c2ccc3ncc(C#N)n3n2)nc1 [Compound 55, 6-(5′-methyl-[2,2′-bipyridin]-3-yl)imidazo[1,2-b]pyridazine-3-carbonitrile] | 5230 | > 15000 |
| Cc1cccc(-c2ncccc2-c2ccc3ncc(C#N)n3n2)n1 [Compound 57, 6-(6′-methyl-[2, 2′-bipyridin]-3-yl) imidazo[1,2-b]pyridazine-3-carbonitrile] | 35 | > 15000 |
| COC(=O)c1ccnc(-c2cccc(C)n2)c1-c1ccc2ncc(C#N)n2c1 [Compound 91, methyl 3-(3-cyanoimidazo[1,2-a]pyridin-6-yl)-6′-methyl-[2,2′-bipyridine]-4-carboxylate] | 652 | > 15000 |
| NC(=O)c1cnc2ccc(-c3cccnc3-c3cc(F)ccn3)nn12 [Compound 60, 6-(4′-fluoro-[2,2′-bipyridin]-3-yl)imidazo[1,2-b]pyridazine-3-carboxamide] | 161 | > 15000 |
| N#Cc1cnc2ccc(-c3cccnc3-c3ccc(F)cn3)nn12 [Compound 53, 6-(5′-fluoro-[2,2′-bipyridin]-3-yl)imidazo[1,2-b]pyridazine-3-carbonitrile] | 605 | > 15000 |
| Cc1cccc(-c2ncccc2-c2ccc3ncc(C(=O)O)n3n2)n1 [Compound 73, 6-(6′-methyl-[2,2′-bipyridin]-3-yl)imidazo[1,2-b]pyridazine-3-carboxylic acid] | 26 | > 15000 |
| Cc1cccc(-c2ncccc2-c2ccn3ncc(C#N)c3n2)n1 [Compound 119, 5-(6′-methyl-[2,2′-bipyridin]-3-yl)pyrazolo[1,5-a]pyrimidine-3-carbonitrile] | 59 | > 15000 |
| N#Cc1cnc2ccc(-c3cccnc3-c3cccc(C4CC4)n3)cn12 [Compound 34, 6-(6′-cyclopropyl-[2,2′-bipyridin]-3-yl)imidazo[1,2-a]pyridine-3-carbonitrile] | 19 | > 15000 |
| CC(=O)Nc1ccc(-c2ccc3ncc(C(N)=O)n3c2)c(-c2cccc(C)n2)n1 [Compound 95, 6-(6-acetamido-6′-methyl-[2,2′-bipyridin]-3-yl)imidazo[1,2-a]pyridine-3-carboxamide] | 353 | > 15000 |
| Nc1ncnc2ccc(-c3cccnc3-c3ccc(F)cn3)nc12 [Compound 104, 6-(5′-fluoro-[2,2′-bipyridin]-3-yl)pyrido[3,2-d]pyrimidin-4-amine] | 42 | > 15000 |
| Cc1cccc(-c2ncccc2-c2ccc3nccnc3c2)n1 [Compound 113, 6-(6′-methyl-[2,2′-bipyridin]-3-yl)quinoxaline] | 9 | > 15000 |
| Cc1cccc(-c2nc(C)ccc2-c2ccc3ncc(C#N)n3c2)n1 [Compound 86, 6-(6,6′-dimethyl-[2,2′-bipyridin]-3-yl)imidazo[1,2-a]pyridine-3-carbonitrile] | 187 | > 15000 |
| Cc1nc(-c2ncccc2-c2ccc3ncc(C#N)n3c2)ccc1F [Compound 15, 6-(5′-fluoro-6′-methyl-[2,2′-bipyridin]-3-yl)imidazo[1,2-a]pyridine-3-carbonitrile] | 10 | > 15000 |
| Cc1cccc(-c2nccc(C(F)F)c2-c2ccc3ncc(C(N)=O)n3c2)n1 [Compound 94, 6-(4-(difluoromethyl)-6′-methyl-[2,2′-bipyridin]-3-yl)imidazo[1,2-a]pyridine-3-carboxamide] | 15000 | > 15000 |
| Cc1nc(-c2ncccc2-c2ccc3ncc(C(N)=O)n3n2)ccc1F [Compound 43, 6-(5′-fluoro-6′-methyl-[2,2′-bipyridin]-3-yl)imidazo[1,2-b]pyridazine-3-carboxamide] | 17 | > 15000 |
| Cc1nc(-c2ncccc2-c2ccc3ncnc(N)c3c2)ccc1F [Compound 110] | 2 | > 15000 |
| Cc1cccc(-c2ncc(F)cc2-c2ccc3ncc(C#N)n3c2)n1 [Compound 81, 6-(5-fluoro-6′-methyl-[2,2′-bipyridin]-3-yl)imidazo[1,2-a]pyridine-3-carbonitrile] | 16 | > 15000 |
| Cc1nc(-c2ncccc2-c2ccc3nccnc3c2)ccc1F [Compound 112, 6-(5′-fluoro-6′-methyl-[2,2′-bipyridin]-3-yl)quinoxaline] | 12 | > 15000 |
| N#Cc1cnc2ccc(-c3cccnc3-c3cc(F)ccn3)cn12 [Compound 16, 6-(4′-fluoro-[2,2′-bipyridin]-3-yl)imidazo[1,2-a]pyridine-3-carbonitrile] | 207 | > 15000 |
| Cc1nc(-c2ncccc2-c2ccn3ncc(C(=O)O)c3n2)ccc1F [Compound 131, 5-(5′-fluoro-6′-methyl-[2,2′-bipyridin]-3-yl)pyrazolo[1,5-a]pyrimidine-3-carboxylic acid] | 211 | > 15000 |
